Several values for one entry are separate records, joined by “and”; a condition that tells them apart may be missing. Equal entries are not always repeated.

For one data set, the target named is ERBB4 (Homo sapiens, UniProt Q15303). Description: biochemical. The data set is classed as binding. The following applies: 10000 nM; read-out: Percent Control.
Another data set deals with TIE2 (Homo sapiens, UniProt Q02763). Description: biochemical. The data set is classed as binding. The conditions noted are these: 10000 nM; read-out: Percent Control.
In another data set the target is MARK3 (Homo sapiens, UniProt P27448). Description: biochemical. The data set is classed as binding. The following applies: 10000 nM; read-out: Percent Control. From the text: (§1) Source data are provided as a Source Data file.
The next data set addresses KIT(V559D,T670I) (Homo sapiens, UniProt P10721, T670I/V559D). As to the kind of experiment: biochemical. The format is binding. The conditions noted are these: 10000 nM; read-out: Percent Control.
Excerpt: as §1

The target of the next data set is VEGFR2 (Homo sapiens, UniProt P35968). Description: biochemical. The format is binding. The following applies: 10000 nM; read-out: Percent Control.
Excerpt: as §1

The target in another data set is PLK3 (Homo sapiens, UniProt Q9H4B4). As to the kind of experiment: biochemical. The data set is classed as binding. The following applies: 10000 nM; read-out: Percent Control.
Excerpt: as §1

In a further data set the target is PIK3C2B (Homo sapiens, UniProt O00750). As to the kind of experiment: biochemical. The format is binding. The conditions noted are these: 10000 nM; read-out: Percent Control.
Excerpt: as §1

A further data set deals with PIM3 (Homo sapiens, UniProt Q86V86). Description: biochemical. The format is binding. The following applies: 10000 nM; read-out: Percent Control.
Excerpt: as §1

The target in a further data set is PAK2 (Homo sapiens, UniProt Q13177). Description: biochemical. The format is binding. The following applies: 10000 nM; read-out: Percent Control.
Excerpt: as §1

The target of the next data set is RAF1 (Homo sapiens, UniProt P04049). As to the kind of experiment: biochemical. The conditions noted are these: 10000 nM; read-out: Percent Control. The format is binding.
Excerpt: as §1

For another data set, the target named is RIOK2 (Homo sapiens, UniProt Q9BVS4). Description: biochemical. The data set is classed as binding. The conditions noted are these: 10000 nM; read-out: Percent Control.
Excerpt: as §1

The target of a further data set is KIT (Homo sapiens, UniProt P10721). Description: biochemical. The data set is classed as binding. The following applies: 10000 nM; read-out: Percent Control.
Excerpt: as §1

A further data set concerns the target MKNK1 (Homo sapiens, UniProt Q9BUB5). As to the kind of experiment: biochemical. The conditions noted are these: 10000 nM; read-out: Percent Control. The format is binding.
Excerpt: as §1

Another data set deals with PKAC-alpha (Homo sapiens, UniProt P17612). Description: biochemical. The format is binding. The following applies: 10000 nM; read-out: Percent Control.
Excerpt: as §1

The target of a further data set is PLK1 (Homo sapiens, UniProt P53350). Description: biochemical. The format is binding. The following applies: 10000 nM; read-out: Percent Control.
Excerpt: as §1

Another data set addresses MEK2 (Homo sapiens, UniProt P36507). Description: biochemical. The format is binding. The following applies: 10000 nM; read-out: Percent Control.
Excerpt: as §1

For another data set, the target named is PDGFRA (Homo sapiens, UniProt P16234). Description: biochemical. The data set is classed as binding. The conditions noted are these: 10000 nM; read-out: Percent Control.
Excerpt: as §1

In a further data set the target is p38-beta (Homo sapiens, UniProt Q15759). Description: biochemical. The data set is classed as binding. The conditions noted are these: 10000 nM; read-out: Percent Control.
Excerpt: as §1

The next data set concerns the target LKB1 (Homo sapiens, UniProt Q15831). Description: biochemical. The data set is classed as binding. The following applies: 10000 nM; read-out: Percent Control.
Excerpt: as §1

The target of a further data set is PCTK1 (Homo sapiens, UniProt Q00536). As to the kind of experiment: biochemical. The data set is classed as binding. The conditions noted are these: 10000 nM; read-out: Percent Control.
Excerpt: as §1

The target of a further data set is PLK4 (Homo sapiens, UniProt O00444). Description: biochemical. The data set is classed as binding. The following applies: 10000 nM; read-out: Percent Control.
Excerpt: as §1

Another data set has as its target PAK1 (Homo sapiens, UniProt Q13153). Description: biochemical. The format is binding. The conditions noted are these: 10000 nM; read-out: Percent Control.
Excerpt: as §1

The target in a further data set is MEK1 (Homo sapiens, UniProt Q02750). As to the kind of experiment: biochemical. The format is binding. The conditions noted are these: 10000 nM; read-out: Percent Control.
Excerpt: as §1

A further data set addresses MAPKAPK2 (Homo sapiens, UniProt P49137). Description: biochemical. The data set is classed as binding. The following applies: 10000 nM; read-out: Percent Control.
Excerpt: as §1

In a further data set the target is MKNK2 (Homo sapiens, UniProt Q9HBH9). As to the kind of experiment: biochemical. The following applies: 10000 nM; read-out: Percent Control. The format is binding.
Excerpt: as §1

The subject of a further data set is 97 human kinases. The format is binding. The conditions noted are these: 10 µM. From the text: (§2) . […] This panel includes several adverse drug reaction receptors such as the serotonin receptor 5HT2b, M1 and M2 muscarinic receptors and adrenergic receptors. […]. page 7:
(§3) Supplementary Figure 7: Non-GPCR off-target screening for 74. a)-e) Dose-response curves of 74 at […]
(§4) proliferator-activated receptor gamma (PPARγ, Eurofins item G124). Data in a)-e) and g)-i) represent two technical replicates. Source data are provided as a Source Data file.
(§5) (1 picture or pasted object on this page, not shown here)
Description of Additional Supplementary Files
File Name: Supplementary Data 1
Description: List of all compounds described in this work.
For each compound, the compound number, the virtual library code (ZINC / Design ID), the Enamine catalog code (Enamine catalog ID), 2D information (SMILES) and a brief description whether the compound was derived from virtual screening or optimization of initial hits (Set) are provided. For virtual screening compounds, the displacement of radiolabeled 3HPGE2 at 10 µM in the initial binding assay at […]
For hit compounds, logIC50, IC50 and Ki in the EP4R PRESTO-Tango or EP4R Arrestin-BRET assays are shown. For lead compounds, the Kb in the EP4R cAMP Assay and Ki from the EP4R radioligand displacement assay are listed.
File Name: Supplementary Data 2
Description: Off-target screening of compound 74 against a panel of 97 human kinases (KINOMEscan, […]

The target in a further data set is FLT3 (Homo sapiens, UniProt P36888). As to the kind of experiment: biochemical. The format is binding. The conditions noted are these: 10000 nM; read-out: Percent Control.
A further data set addresses SNARK (Homo sapiens, UniProt Q9H093). Description: biochemical. The format is binding. The following applies: 10000 nM; read-out: Percent Control.
The next data set addresses T1, PPARγ (Homo sapiens, UniProt P37231).
T1 construct: purchased Eurofins item G124
As to the kind of experiment: PPARγ agonist/antagonist assay (Eurofins item G124). The data set is classed as biochemical.
Excerpt: as §2, §3, §4, §5

Another data set concerns mice. The data set is classed as in vivo. The protocol:
For all behavioral tests, the experimenter was always blind to treatment. Animals were habituated for 60 min in Plexiglas cylinders before testing. […] For 10 mg/kg doses, compounds were prepared in 2.5 mg/ml solutions of which 100 µL were administered to mice (average weight 25 g). For 30 mg/kg doses, 7.5 mg/ml solutions were prepared. […] Hindpaw mechanical thresholds were determined with von Frey filaments using the up-down method, 60 min after administration of the EP4R antagonists (i.p. or via oral gavage). For the ambulatory (rotarod) test, mice were first trained on an accelerating rotating rod, 3 times for 5 minutes, before testing with any compound. On the test day, latency to fall from the rod was measured 1 h after injection of the compound. The cutoff was 300 s. Statistical tests were performed with GraphPad Prism 9.0 (GraphPad Software Inc., San Diego).

T1 sequence (P37231 whole entry, species assumed): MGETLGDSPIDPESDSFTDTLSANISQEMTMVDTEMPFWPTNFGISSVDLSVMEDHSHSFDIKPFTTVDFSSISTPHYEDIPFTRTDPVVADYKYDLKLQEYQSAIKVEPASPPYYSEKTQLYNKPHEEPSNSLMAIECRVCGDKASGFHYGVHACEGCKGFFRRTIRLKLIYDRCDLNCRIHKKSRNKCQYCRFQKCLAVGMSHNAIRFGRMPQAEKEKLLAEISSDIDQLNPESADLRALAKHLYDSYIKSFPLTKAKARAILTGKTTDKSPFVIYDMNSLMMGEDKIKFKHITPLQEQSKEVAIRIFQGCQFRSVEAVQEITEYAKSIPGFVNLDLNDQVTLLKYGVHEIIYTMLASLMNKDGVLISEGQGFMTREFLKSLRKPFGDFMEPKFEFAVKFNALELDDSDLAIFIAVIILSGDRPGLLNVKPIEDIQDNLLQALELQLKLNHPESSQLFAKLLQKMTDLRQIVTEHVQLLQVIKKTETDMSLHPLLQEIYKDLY
Sequence of MAPKAPK2 (P49137 whole entry): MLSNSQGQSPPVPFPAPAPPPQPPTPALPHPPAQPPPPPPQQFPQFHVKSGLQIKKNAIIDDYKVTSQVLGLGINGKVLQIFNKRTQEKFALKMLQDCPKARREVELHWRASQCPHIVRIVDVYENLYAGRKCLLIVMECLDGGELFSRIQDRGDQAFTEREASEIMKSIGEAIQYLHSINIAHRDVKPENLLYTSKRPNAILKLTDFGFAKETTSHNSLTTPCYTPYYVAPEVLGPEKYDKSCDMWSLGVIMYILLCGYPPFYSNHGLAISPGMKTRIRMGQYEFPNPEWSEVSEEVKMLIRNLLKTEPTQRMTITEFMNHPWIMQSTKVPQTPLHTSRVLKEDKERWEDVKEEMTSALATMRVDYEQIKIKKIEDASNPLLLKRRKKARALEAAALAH
Sequence of FLT3 (P36888 27-993): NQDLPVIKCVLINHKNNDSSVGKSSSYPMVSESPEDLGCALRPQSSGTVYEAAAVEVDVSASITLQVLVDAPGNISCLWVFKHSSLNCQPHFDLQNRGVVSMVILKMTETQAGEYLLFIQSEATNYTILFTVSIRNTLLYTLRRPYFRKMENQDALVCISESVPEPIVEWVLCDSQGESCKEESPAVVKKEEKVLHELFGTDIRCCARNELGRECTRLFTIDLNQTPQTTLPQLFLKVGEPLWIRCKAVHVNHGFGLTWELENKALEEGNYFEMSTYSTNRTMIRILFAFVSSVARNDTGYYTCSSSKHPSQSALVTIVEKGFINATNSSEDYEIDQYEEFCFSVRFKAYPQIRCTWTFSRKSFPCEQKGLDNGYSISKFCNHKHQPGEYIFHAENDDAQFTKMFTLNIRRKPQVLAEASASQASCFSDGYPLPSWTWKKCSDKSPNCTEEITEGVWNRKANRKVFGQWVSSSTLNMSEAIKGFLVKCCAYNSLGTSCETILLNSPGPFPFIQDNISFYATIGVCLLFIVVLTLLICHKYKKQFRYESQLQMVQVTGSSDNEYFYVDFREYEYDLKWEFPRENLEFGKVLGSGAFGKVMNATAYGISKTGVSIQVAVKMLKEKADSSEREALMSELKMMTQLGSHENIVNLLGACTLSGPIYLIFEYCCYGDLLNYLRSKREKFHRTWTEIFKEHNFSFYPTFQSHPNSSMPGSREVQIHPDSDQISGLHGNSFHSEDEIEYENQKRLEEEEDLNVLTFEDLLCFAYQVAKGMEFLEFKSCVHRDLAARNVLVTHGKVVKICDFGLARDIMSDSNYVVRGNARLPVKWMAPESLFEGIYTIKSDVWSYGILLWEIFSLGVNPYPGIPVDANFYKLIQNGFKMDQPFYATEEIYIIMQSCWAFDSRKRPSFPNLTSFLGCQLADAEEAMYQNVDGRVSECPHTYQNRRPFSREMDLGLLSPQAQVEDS
Sequence of SNARK (Q9H093 whole entry): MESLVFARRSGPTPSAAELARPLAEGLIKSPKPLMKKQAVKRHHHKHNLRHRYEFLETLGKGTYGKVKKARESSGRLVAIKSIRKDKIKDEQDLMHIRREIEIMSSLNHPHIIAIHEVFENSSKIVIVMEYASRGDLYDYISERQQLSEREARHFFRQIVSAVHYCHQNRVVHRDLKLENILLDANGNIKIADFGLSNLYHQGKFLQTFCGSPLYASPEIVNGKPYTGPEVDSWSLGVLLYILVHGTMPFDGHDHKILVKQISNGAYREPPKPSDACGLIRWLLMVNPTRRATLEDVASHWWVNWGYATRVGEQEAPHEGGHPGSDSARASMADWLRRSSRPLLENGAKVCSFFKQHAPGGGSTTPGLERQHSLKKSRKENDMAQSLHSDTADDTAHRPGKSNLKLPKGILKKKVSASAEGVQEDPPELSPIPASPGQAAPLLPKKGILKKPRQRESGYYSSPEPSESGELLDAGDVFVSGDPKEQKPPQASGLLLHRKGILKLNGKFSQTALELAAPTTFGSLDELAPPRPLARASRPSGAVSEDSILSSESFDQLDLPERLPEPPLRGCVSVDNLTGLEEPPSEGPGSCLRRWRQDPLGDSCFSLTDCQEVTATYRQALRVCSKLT
Sequence of p38-beta (Q15759 whole entry): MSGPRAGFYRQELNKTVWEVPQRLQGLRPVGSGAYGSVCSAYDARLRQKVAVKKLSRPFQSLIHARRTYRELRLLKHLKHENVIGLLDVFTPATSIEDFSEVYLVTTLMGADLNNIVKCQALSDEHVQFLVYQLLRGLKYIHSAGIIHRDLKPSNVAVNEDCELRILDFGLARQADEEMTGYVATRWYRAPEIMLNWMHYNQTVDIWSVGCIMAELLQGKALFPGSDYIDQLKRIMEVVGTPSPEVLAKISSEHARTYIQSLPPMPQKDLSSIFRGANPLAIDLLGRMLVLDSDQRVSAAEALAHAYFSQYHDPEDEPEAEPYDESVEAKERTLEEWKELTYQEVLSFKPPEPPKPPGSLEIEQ
Sequence of PAK2 (Q13177 whole entry): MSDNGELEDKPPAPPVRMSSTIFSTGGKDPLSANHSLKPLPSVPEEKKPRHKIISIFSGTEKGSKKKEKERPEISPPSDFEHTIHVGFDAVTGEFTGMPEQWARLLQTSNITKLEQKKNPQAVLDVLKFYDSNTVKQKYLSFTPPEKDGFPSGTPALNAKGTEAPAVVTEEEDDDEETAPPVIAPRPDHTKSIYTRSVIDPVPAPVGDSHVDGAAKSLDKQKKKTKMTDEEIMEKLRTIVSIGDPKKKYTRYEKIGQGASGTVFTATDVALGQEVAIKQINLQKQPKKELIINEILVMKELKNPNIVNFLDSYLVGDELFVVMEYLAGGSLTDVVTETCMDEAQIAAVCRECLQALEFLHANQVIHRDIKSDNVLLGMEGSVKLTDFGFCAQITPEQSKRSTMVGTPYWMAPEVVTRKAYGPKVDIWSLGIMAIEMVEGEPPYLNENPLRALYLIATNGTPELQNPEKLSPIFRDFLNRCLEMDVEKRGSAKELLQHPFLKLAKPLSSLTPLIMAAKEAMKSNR
Sequence of TIE2 (Q02763 23-1124): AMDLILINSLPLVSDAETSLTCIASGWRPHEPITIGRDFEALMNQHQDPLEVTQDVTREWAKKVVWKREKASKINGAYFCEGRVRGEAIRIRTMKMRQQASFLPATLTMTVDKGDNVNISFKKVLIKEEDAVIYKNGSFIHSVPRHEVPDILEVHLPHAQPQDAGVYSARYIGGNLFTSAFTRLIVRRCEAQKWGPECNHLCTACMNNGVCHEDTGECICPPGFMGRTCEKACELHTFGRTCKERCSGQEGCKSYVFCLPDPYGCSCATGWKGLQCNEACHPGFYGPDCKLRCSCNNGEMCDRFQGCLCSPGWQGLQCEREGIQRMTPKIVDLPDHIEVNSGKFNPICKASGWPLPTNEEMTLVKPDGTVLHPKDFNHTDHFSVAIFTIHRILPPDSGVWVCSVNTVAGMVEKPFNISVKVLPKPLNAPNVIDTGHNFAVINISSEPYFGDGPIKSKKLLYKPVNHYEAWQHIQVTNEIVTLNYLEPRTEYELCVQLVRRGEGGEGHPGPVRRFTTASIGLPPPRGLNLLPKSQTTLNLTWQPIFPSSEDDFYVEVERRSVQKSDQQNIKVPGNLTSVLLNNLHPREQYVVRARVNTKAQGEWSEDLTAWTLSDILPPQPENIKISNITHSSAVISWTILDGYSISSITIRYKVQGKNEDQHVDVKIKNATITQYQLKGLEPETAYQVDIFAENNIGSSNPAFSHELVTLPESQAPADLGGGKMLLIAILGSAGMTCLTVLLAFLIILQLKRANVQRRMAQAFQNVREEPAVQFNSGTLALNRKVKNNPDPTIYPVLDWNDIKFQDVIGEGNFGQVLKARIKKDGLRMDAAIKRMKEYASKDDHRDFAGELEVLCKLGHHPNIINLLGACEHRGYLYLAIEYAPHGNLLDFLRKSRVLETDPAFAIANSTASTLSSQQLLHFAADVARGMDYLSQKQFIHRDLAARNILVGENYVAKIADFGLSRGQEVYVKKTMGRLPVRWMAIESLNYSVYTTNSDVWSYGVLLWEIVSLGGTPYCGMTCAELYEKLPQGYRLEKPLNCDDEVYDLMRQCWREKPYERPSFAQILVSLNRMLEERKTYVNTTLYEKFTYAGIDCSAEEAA
Sequence of MKNK2 (Q9HBH9 whole entry): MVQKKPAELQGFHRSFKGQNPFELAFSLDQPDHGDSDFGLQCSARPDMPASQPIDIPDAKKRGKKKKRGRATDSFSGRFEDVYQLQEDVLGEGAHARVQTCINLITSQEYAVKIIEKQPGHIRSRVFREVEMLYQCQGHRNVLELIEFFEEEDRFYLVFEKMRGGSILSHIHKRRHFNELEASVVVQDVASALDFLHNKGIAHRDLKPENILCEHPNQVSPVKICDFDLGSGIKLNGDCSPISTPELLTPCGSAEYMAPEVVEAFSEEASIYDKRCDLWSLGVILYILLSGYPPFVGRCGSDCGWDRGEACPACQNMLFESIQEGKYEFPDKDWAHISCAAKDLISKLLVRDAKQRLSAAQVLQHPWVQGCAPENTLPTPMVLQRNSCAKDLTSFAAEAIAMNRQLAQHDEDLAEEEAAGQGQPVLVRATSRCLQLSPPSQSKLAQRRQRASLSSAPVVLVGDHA

For `O=C(O)C1CCC2(CC1)CC(Nc1ncnc3[nH]c4c(F)cccc4c13)C2` (stereo not drawn) [Compound 74, OC(=O)C1CCC2(CC(C2)NC=3N=CN=C4NC=5C(F)=CC=CC5C34)CC1], the remaining activity at 10 µM on ERBB4 is 99%; on TIE2, 81%; on MARK3, 81%; on KIT(V559D,T670I) it was 56%; on VEGFR2 it was 31%; at PLK3, 97%. Besides, the remaining activity at 10 µM came out at 74% on PIK3C2B; 53% on PIM3; 66% on PAK2; 98% at RAF1; 54% at RIOK2; 75% at KIT. Further, the remaining activity at 10 µM worked out at 72% at MKNK1; 99% at PKAC-alpha; 100% at PLK1; 23% at MEK2; 35% at PDGFRA; 79% at p38-beta. The remaining activity at 10 µM came to 97% at LKB1; 94% at PCTK1; 34% on PLK4; 76% at PAK1; 24% at MEK1; 98% on MAPKAPK2. Also, the values for the remaining activity at 10 µM at MKNK2, at FLT3 and on SNARK were 62%, 26% and 54%, respectively. Also, the “inhibition in kinase panel” value in the data set with 97 human kinases is on record as “notable inhibition of five kinases”. On PPARγ, the “agonist or antagonist activity at PPARγ” value is “no agonist or antagonist activity”. For the same compound, the “inhibitory activity against PPARγ” value on PPARγ (3 µM) is reported as “no inhibitory activity”.

With `O=C([O-])C1CCC2(CC1)CC(Nc1ncnc3[nH]c4c(F)cccc4c13)C2.[Na+]` (stereo not drawn) [Compound 77, [Na+].[O-]C(=O)C1CCC2(CC(C2)NC=3N=CN=C4NC=5C(F)=CC=CC5C34)CC1], in the data set with mice (30 mg/kg IP, 1 h after injection, cutoff 300 s, individual animals), the “Rotarod latency to fall” value was 300 s and 281 s and 295 s and 269 s. Further, the “motor impairment in the rotarod test” value in the data set on mice (mouse, in vivo) is on record as “did not induce motor impairment”. In the data set with mice (uninjured mice, IP 30 mg/kg, single animals, 30 mg/kg), the “Uninjured mice, individual animal values (Supplementary Figure 10A)” value is 116 and 71.5 and 93.5 and 86.1 and 110.4.

The values above are taken from paper PMC10700596 (Nature Communications, 2023).
